Test results as given in patent publication US11685747B2, “Compounds that inhibit MCL-1 protein” (AMGEN INC., priority 2014, dated 2023).

What was measured:
[1] = biological target: T1, Mcl-1/Bak protein-protein interactions (Homo sapiens, UniProt Q07820); assay: Cell-based split luciferase complementation assay; conditions: HEK 293 M cells, serum-free, 4 h
T1 construct: expressed in transfected cells; host or cells: HEK 293 M cells, transient transfection
Description: Cell-Based Assay (Split Luciferase)
A split luciferase complementation assay was developed to determine the inhibition of Mcl-1/Bak protein-protein interactions in cells. […] Transient transfection was performed using Lipofectamine® LTX/Plus™ reagent (Life Technologies, Grand Island, N.Y.). 24 h after transfection, cells were collected using non-enzyme based cell dissociation buffer StemPro® Accutase® (Life Technologies), and resuspended in serum-free Opti-MEM® (Life Technologies). Cells were then seeded into assay plates with serially diluted test compounds in 0.3% DMSO at density of a 5000 cells/well. Cells were then incubated for 4 h at 37° C. in a cell culture incubator supplement with 5% CO2. Test plates were equilibrated to room temperate for 30 min before addition of 30 μL Steady-Glo® Luciferase assay reagent (Promega, Madison, Wis.) into each test well. Luminescence was determined using an EnVision® Multilabel plate reader 25 min after the addition of detection reagent. IC50 values were then calculated with Xlfit using a logistical 4-parameter fit model in GraphPad Prism (GraphPad Software, San Diego, Calif.) or in Genedata Screener® (Genedata, Basel, Switzerland).

[2] = biological target: T2, recombinant human Mcl-1 (Homo sapiens, UniProt Q07820); assay: Cell free Mcl-1:Bim affinity assay (Mcl-1 HTRF, TR-FRET); assay type: binding; conditions: inhibition of Mcl-1/Bim interaction
T2 construct: C-terminally 6×His tagged Mcl-1 containing residues 171-327; made in house
Description: Cell Free Mcl-1:Bim Affinity Assay (Mcl-1 HTRF)
The inhibition of the Mcl-1/Bim interaction was measured using a time-resolved fluorescence resonance energy transfer (TR-FRET) assay. […] A biotinylated peptide derived from human Bim (residues 51-76) was purchased from CPC Scientific (San Jose, Calif.). The TR-FRET assay was conducted in a 384-well white OptiPlate™ (PerkinElmer, Waltham, Mass.) in a total volume of 40 μL. […] The reaction plates were further incubated overnight and then were read on an Envision® multimode reader (PerkinElmer). […] The IC50 values of test compounds were determined from duplicate data by analyzing competition curves using a four-parameter sigmoidal model in GraphPad Prism (GraphPad Software, San Diego, Calif.) or in Genedata Screener® (Genedata, Basel, Switzerland).

[3] = system: OPM-2; assay: Cell viability assay (OPM-2 10 FBS, CellTiter-Glo); assay type: cell-based, human; conditions: OPM-2 cells
Description: Cell Viability Assay (OPM-2 10 FBS)
Cells were seeded into 384-well plates at 3000 cells/well density in complete growth medium containing 10% FBS, and incubated for 16 h with serially diluted test compounds in a 37° C. incubator with 5% CO2. Cell viability was tested using CellTiter-Glo® assay (Promega, Madison, Wis.) according to the manufacturer recommendations. Luminescence was determined using an EnVision® Multilabel plate reader 25 min after the addition of detection reagent. IC50 values were then calculated with Xlfit using a logistical 4-parameter fit model in GraphPad Prism (GraphPad Software, San Diego, Calif.) or in Genedata Screener® (Genedata, Basel, Switzerland).

T1 sequence (Q07820 whole entry): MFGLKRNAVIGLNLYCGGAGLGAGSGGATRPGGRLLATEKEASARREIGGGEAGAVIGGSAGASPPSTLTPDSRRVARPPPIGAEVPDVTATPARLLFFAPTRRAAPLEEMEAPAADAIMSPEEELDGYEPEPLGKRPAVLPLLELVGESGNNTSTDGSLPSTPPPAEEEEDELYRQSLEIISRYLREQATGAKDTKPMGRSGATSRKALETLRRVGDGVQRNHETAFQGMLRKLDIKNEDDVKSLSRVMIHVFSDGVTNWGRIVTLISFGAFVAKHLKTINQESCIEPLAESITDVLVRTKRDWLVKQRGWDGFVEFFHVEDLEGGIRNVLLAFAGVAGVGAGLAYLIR
T2 sequence (Q07820 171-327): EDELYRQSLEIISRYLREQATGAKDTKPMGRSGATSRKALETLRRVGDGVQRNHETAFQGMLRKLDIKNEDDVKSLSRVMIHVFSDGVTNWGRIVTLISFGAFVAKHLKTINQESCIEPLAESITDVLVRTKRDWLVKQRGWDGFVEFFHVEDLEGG

| Compound | IC50 [1] [nM] | IC50 [2] [nM] | IC50 ([3]; Homo sapiens, OPM-2, 16 h) [nM] | IC50 ([3]; 16 h) [nM] |
| --- | --- | --- | --- | --- |
| CC[C@@H]1CC/C=C/[C@H](OCCOC)[C@@H]2CC[C@H]2CN2C[C@@]3(CCCc4cc(Cl)ccc43)COc3ccc(cc32)C(=O)NS1(=O)=O [Example 75, (1S,3′R,6′R,7′S,8′E,12′R)-6-Chloro-12′-Ethyl-7′-(2-Methoxyethoxy)-3,4-Dihydro-2H,15′H-Spiro[Naphthalene-1,22′-[20]Oxa[13]Thia[1,14]Diazatetracyclo[14.7.2.0^3,6.0^19,24]Pentacosa[8,16,18,24]Tetraen]-15′-One 13′,13′-Dioxide] | 159 | 2.83 | 2560 |  |
| O=C1NS(=O)(=O)CCCCC[C@H](O)[C@@H]2CC[C@H]2CN2C[C@@]3(CCCc4cc(Cl)ccc43)COc3ccc1cc32 [Example 10, (1S,3′R,6′R,7′S)-6-Chloro-7′-Hydroxy-3,4-Dihydro-2H,15′Hspiro[Naphthalene-1,22′[20]Oxa[13]Thia[1,14]Diazatetracyclo[14.7.2.0^3,6.0^19,24]Penta Cosa[16,18,24]Trien]-15′-One 13′,13′-Dioxide] | 232 | 1.18 | 9410 |  |
| C[C@@H]1C/C=C/[C@H](O)[C@@H]2CC[C@H]2CN2C[C@@]3(CCCc4cc(Cl)ccc43)COc3ccc(cc32)C(=O)NS(=O)(=O)[C@H]1CC1CCC1 (single isomer, unassigned) [Example 64] | 318 | 13.6 |  | 8630 |
| CO[C@H]1CCC[C@H](C)[C@@H](C)S(=O)(=O)NC(=O)c2ccc3c(c2)N(C[C@@H]2CC[C@H]21)C[C@@]1(CCCc2cc(Cl)ccc21)CO3 [Example 7, (1S,3′R,6′R,7′S,11′S,12′R)-6-Chloro-7′-Methoxy-11′,12′-Dimethyl-3,4-Dihydro-2H,15′H-Spiro[Naphthalene-1,22′-[20]Oxa[13]Thia[1,14]Diazatetracyclo[14.7.2.0^3,6.0^19,24]Pentacos A[16,18,24]Trien]-15′-One 13′,13′-Dioxide] | 147 | 1.18 | 1060 |  |
| CO[C@H]1CCCC[C@@H](C)S(=O)(=O)NC(=O)c2ccc3c(c2)N(C[C@@H]2CC[C@H]21)C[C@@]1(CCCc2cc(Cl)ccc21)CO3 [Example 16, (1S,3′R,6′R,7′S,12′R)-6-Chloro-7′-Methoxy-12′-Methyl-3,4-Dihydro-2H,15′H-Spiro[Naphthalene-1,22′-[20]Oxa[13]Thia[1,14]Diazatetracyclo[14.7.2.0^3,6.0^19,24]Pentacos A[16,18,24]Trien]-15′-One 13′,13′-Dioxide] | 107 | 2.08 | 4340 |  |
| C[C@H]1C/C=C/[C@H](O)[C@@H]2CC[C@H]2CN2C[C@@]3(CCCc4cc(Cl)ccc43)COc3ccc(cc32)C(=O)NS(=O)(=O)[C@@H]1C1CCC1 (single isomer, unassigned) [Example 57] | 375 | 2.15 |  | 2400 |
| COCCO[C@H]1/C=C/C[C@H](C)CS(=O)(=O)NC(=O)c2ccc3c(c2)N(C[C@@H]2CC[C@H]21)C[C@@]1(CCCc2cc(Cl)ccc21)CO3 (single isomer, unassigned) [Example 78] | 420 | 2.67 |  | 2740 |
| CC(C)C[C@@H]1[C@@H](C)C/C=C/[C@H](O)[C@@H]2CC[C@H]2CN2C[C@@]3(CCCc4cc(Cl)ccc43)COc3ccc(cc32)C(=O)NS1(=O)=O (single isomer, unassigned) [Example 67] | 84.8 | 1.08 |  | 600 |
| CC(C)[C@@H]1[C@H](C)C/C=C/[C@H](O)[C@@H]2CC[C@H]2CN2C[C@@]3(CCCc4cc(Cl)ccc43)COc3ccc(cc32)C(=O)NS1(=O)=O (single isomer, unassigned) [Example 52] | 140 | 0.882 |  | 1110 |
| CC[C@@H]1CCCC[C@H](OC)[C@@H]2CC[C@H]2CN2C[C@@]3(CCCc4cc(Cl)ccc43)COc3ccc(cc32)C(=O)NS1(=O)=O [Example 21, (1S,3′R,6′R,7′S,12′R)-6-Chloro-12′-Ethyl-7′-Methoxy-3,4-Dihydro-2H,15′H-Spiro[Naphthalene-1,22′-[20]Oxa[13]Thia[1,14]Diazatetracyclo[14.7.2.0^3,6.0^19,24]Pentacos A[16,18,24]Trien]-15′-One 13′,13′-Dioxide] | 192 | 2.78 | 4170 |  |
| CO[C@H]1/C=C/CC[C@@H](C)S(=O)(=O)NC(=O)c2ccc3c(c2)N(C[C@@H]2CC[C@H]21)C[C@@]1(CCCc2cc(Cl)ccc21)CO3 [Example 13, (1S,3′R,6′R,7′S,8′E,12′R)-6-Chloro-7′-Methoxy-12′-Methyl-3,4-Dihydro-2H,15′H-Spiro[Naphthalene-1,22′-[20]Oxa[13]Thia[1,14]Diazatetracyclo[14.7.2.0^3,6.0^19,24]Pentacos A[8,16,18,24]Tetraen]-15′-One 13′,13′-Dioxide] | 34.1 | 0.441 | 353 |  |

Further compounds by falling IC50 [1], results first:

| IC50 [1] [nM] | IC50 [2] [nM] | Compound | IC50 ([3]; Homo sapiens, OPM-2, 16 h) [nM] | IC50 ([3]; 16 h) [nM] |
| --- | --- | --- | --- | --- |
| 458 | 9.44 | C[C@H]1C/C=C/[C@H](O)[C@@H]2CC[C@H]2CN2C[C@@]3(CCCc4cc(Cl)ccc43)COc3ccc(cc32)C(=O)NS(=O)(=O)C1 (single isomer, unassigned) [Example 29] |  | 5580 |
| 376 | 5.3 | CC(C)C[C@@H]1[C@@H](C)C/C=C/[C@H](O)[C@@H]2CC[C@H]2CN2C[C@@]3(CCCc4cc(Cl)ccc43)COc3ccc(cc32)C(=O)NS1(=O)=O (single isomer, unassigned) [Example 65] |  | 3280 |
| 163 | 0.852 | CC1(C)C/C=C/[C@H](O)[C@@H]2CC[C@H]2CN2C[C@@]3(CCCc4cc(Cl)ccc43)COc3ccc(cc32)C(=O)NS(=O)(=O)C1 [Example 1, (1S,3′R,6′R,7′S,8′E)-6-Chloro-7′-Hydroxy-11′,11′-Dimethyl-3,4-Dihydro-2H,15′H-Spiro[Naphthalene-1,22′-[20]Oxa[13]Thia[1,14]Diazatetracyclo[14.7.2.0^3,6.0^19,24]Pentacos A[8,16,18,24]Tetraen]-15′-One 13′,13′-Dioxide] | 1880 |  |
| 84.3 | 0.955 | C[C@@H]1CCC[C@H](O)[C@@H]2CC[C@H]2CN2C[C@@]3(CCCc4cc(Cl)ccc43)COc3ccc(cc32)C(=O)NS(=O)(=O)[C@@H]1C (single isomer, unassigned) [Example 35] |  | 723 |
| 77.9 | 0.542 | CC[C@@H]1[C@@H](C)C/C=C/[C@H](OC)[C@@H]2CC[C@H]2CN2C[C@@]3(CCCc4cc(Cl)ccc43)COc3ccc(cc32)C(=O)NS1(=O)=O [Example 25, (1S,3′R,6′R,7′S,8′E,11′S,12′R)-6-Chloro-12′-Ethyl-7′-Methoxy-11′-Methyl-3,4-Dihydro-2H,15′H-Spiro[Naphthalene-1,22′-[20]Oxa[13]Thia[1,14]Diazatetracyclo[14.7.2.0^3,6.0^19,24]Pentacosa[8,16,18,24]Tetraen]-15′-One 13′,13′-Dioxide] | 404 |  |
| 50.4 | 0.647 | CC[C@@H]1CC/C=C/[C@H](OC)[C@@H]2CC[C@H]2CN2C[C@@]3(CCCc4cc(Cl)ccc43)COc3ccc(cc32)C(=O)NS1(=O)=O [Example 20, (1S,3′R,6′R,7′S,8′E,12′R)-6-Chloro-12′-Ethyl-7′-Methoxy-3,4-Dihydro-2H,15′H-Spiro[Naphthalene-1,22′-[20]Oxa[13]Thia[1,14]Diazatetracyclo[14.7.2.0^3,6.0^19,24]Pentacos A[8,16,18,24]Tetraen]-15′-One 13′,13′-Dioxide] | 390 |  |
| 37.7 | 0.437 | CC[C@H]1C/C=C/[C@H](O)[C@@H]2CC[C@H]2CN2C[C@@]3(CCCc4cc(Cl)ccc43)COc3ccc(cc32)C(=O)NS(=O)(=O)C1 (single isomer, unassigned) [Example 34] | 253 |  |
| 26.5 | 0.38 | C[C@@H]1C/C=C/[C@H](O)[C@@H]2CC[C@H]2CN2C[C@@]3(CCCc4cc(Cl)ccc43)COc3ccc(cc32)C(=O)NS(=O)(=O)C1 (single isomer, unassigned) [Example 30] |  | 161 |
